From PubChem BioAssay AID588634 (Broad Institute, 2011)
Active and inactive are the calls of the source.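 The calls were made as follows: active = compounds whose fitted half-maximal toxic concentration is no more than twice their top tested dose; inconclusive = flat fit with 30 to 70% signal loss, or poor fit; inactive = the rest.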

Test system: not listed separately
Test: cytotoxicity in NIH-3T3 fibroblasts, dose response, cytotoxicity control for antifungal single agent project, cell-based, Alamar Blue, cherry-pick (AID 588634)
Settings: NIH-3T3 fibroblast viability, Alamar Blue fluorescence, 48 h; at 26 µM (top of the series)

Q: With `CCOC(=O)N1C(=O)C2(CCCCC2)N(c2ccc(C)cc2)C1=S` as the molecule, how does the activity change, negative = toxicity read?
A: -0.005% (inactive)

Q: For `C(C#CCCCCCCCCC[n+]1ccccc1)#CCCCCCCCCC[n+]1ccccc1`, which activity change, negative = toxicity is on record?
A: -33.3% (inactive)

Q: Which activity change, negative = toxicity does the source give for `CCN1/C(=C/C=C/c2oc3ccc(-c4ccccc4)cc3[n+]2CC)Oc2ccc(-c3ccccc3)cc21` here?
A: 360% (inactive)

Test system: NIH-3T3 fibroblast viability, Alamar Blue fluorescence, 48 h
Test: as above
Settings: not given

Q: Which AC50 does the source give for `O=C(N/N=C/c1cc2c3c(c1O)CCCN3CCC2)c1ccccc1O` here?
A: 6370 nM

Q: For `CN1CCN(C(c2ccc(C(F)(F)F)cc2)c2ccc3cccnc3c2O)CC1` (stereo not drawn), which AC50 is on record?
A: 852 nM

Q: With `O=Nc1c(-c2cccc([N+](=O)[O-])c2)nc2ncccn12` as the molecule, how does the AC50 read?
A: 9990 nM

Q: With `O=C(Oc1c(Cl)cc(Cl)c2cccnc12)c1cccs1` as the molecule, how does the AC50 read?
A: 659 nM

Q: Which AC50 does the source give for `Cc1ccc(C(=O)c2coc3c2C(=O)C(=O)c2ccccc2-3)cc1` here?
A: 8170 nM

Q: For `Oc1c(C(Nc2nccs2)c2ccc(C(F)(F)F)cc2)ccc2cccnc12` (stereo not drawn), which AC50 is on record?
A: 1740 nM

Q: Which AC50 does the source give for `CCCCC(=O)NC(c1ccc(N(CC)CC)cc1)c1ccc2cccnc2c1O` (stereo not drawn) here?
A: 1250 nM

Q: Which AC50 does the source give for `O=[N+]([O-])c1ccc(O)c(/C=N/Nc2ccc(Cl)nn2)c1` here?
A: 1600 nM

Q: With `COc1cccc(/C=N/Nc2ncnc3scc(-c4ccccc4)c23)c1O` as the molecule, how does the AC50 read?
A: 2070 nM

Q: For `Cc1cc(NC(c2ccc(Cl)cc2)c2ccc3cccnc3c2O)no1` (stereo not drawn), which AC50 is on record?
A: 3660 nM

Q: For `CN1CCN(C(c2ccc(C(F)(F)F)cc2)c2cc(Cl)c3cccnc3c2O)CC1` (stereo not drawn), which AC50 is on record?
A: 1960 nM

Q: Which AC50 does the source give for `CCN(CC)S(=O)(=O)c1cc(OC)ccc1N=Nc1ccc(O)c2ncccc12` here?
A: 753 nM

Q: With `Oc1c(C(Nc2nc3ccccc3s2)c2ccco2)ccc2cccnc12` (stereo not drawn) as the molecule, how does the AC50 read?
A: 1850 nM

Q: With `O=[N+]([O-])c1cc(CN2CCN(c3ccccc3)CC2)c(O)c2ncccc12` as the molecule, how does the AC50 read?
A: 109 nM

Q: For `COc1cccc(N=Nc2ccc3cccnc3c2O)c1`, which AC50 is on record?
A: 712 nM

Q: Which AC50 does the source give for `CCCCC(=O)NC(c1ccco1)c1cc(Cl)c2cccnc2c1O` (stereo not drawn) here?
A: 705 nM

Q: For `O=C(N/N=C/c1c(O)ccc2ccccc12)c1cccc(C(F)(F)F)c1`, which AC50 is on record?
A: 4340 nM

Q: For `CCCCC(=O)NC(c1ccc(Cl)cc1)c1ccc2cccnc2c1O` (stereo not drawn), which AC50 is on record?
A: 1090 nM

Q: Which AC50 does the source give for `Oc1ccc(N=Nc2ccc3c(c2)OCCO3)c2ncccc12` here?
A: 702 nM

Q: With `CCOc1ccc(N=Nc2ccc(O)c3ncccc23)cc1` as the molecule, how does the AC50 read?
A: 289 nM

Q: With `Oc1c(C(c2ccc(Cl)cc2)N2CCCC2)cc(Cl)c2cccnc12` (stereo not drawn) as the molecule, how does the AC50 read?
A: 1470 nM

Q: For `C/C(=N\NC(=O)c1cc2ccccc2cc1O)c1ccccn1`, which AC50 is on record?
A: 1040 nM

Q: For `Oc1c(CN2CCN(c3ccccc3)CC2)cc(Br)c2cccnc12`, which AC50 is on record?
A: 1390 nM

Q: For `O=Cc1ccc(O)c2ncccc12`, which AC50 is on record?
A: 913 nM

Q: For `O=c1ccc(N=Nc2ccccc2)ccc1O`, which AC50 is on record?
A: 1600 nM

Q: For `Oc1ccc(N=Nc2ccc3c(c2)OCCO3)c2cccnc12`, which AC50 is on record?
A: 3140 nM

Q: For `COc1cccc(N=Nc2ccc(O)c3ncccc23)c1`, which AC50 is on record?
A: 279 nM

Q: With `Oc1c(CN2CCN(c3ccc(F)cc3)CC2)cc(Cl)c2cccnc12` as the molecule, how does the AC50 read?
A: 1290 nM

Q: Which AC50 does the source give for `COc1ccc(C)cc1N=Nc1ccc(O)c2ncccc12` here?
A: 303 nM

Q: For `O=C(Oc1c(Cl)cc(Cl)c2cccnc12)c1ccco1`, which AC50 is on record?
A: 409 nM
